One assay concerns the target T1, WHSC1L1 1054–1285 (Homo sapiens, UniProt Q9BZ95).
T1 construct: A WHSC1L1 construct containing amino acids 1054–1285; His-TEV (N, cleaved yes); made in house; host or cells: E. coli
T1 sequence (Q9BZ95 1054-1285): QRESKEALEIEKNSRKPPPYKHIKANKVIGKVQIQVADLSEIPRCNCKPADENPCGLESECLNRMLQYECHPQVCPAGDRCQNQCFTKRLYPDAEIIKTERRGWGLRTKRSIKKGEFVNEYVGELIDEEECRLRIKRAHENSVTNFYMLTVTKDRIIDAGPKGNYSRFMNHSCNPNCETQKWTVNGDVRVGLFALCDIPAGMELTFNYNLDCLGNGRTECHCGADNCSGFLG
In words: WHSC1L1 1054–1285 radiometric biochemical assay. Particulars: 40 nM enzyme, 6 μM total SAM, 0.8 μM peptide, 30 min pre-incubation, three independent replicates. How it is done: (§1) An optimized 1× assay buffer containing 20 mM Tris-HCl (pH 8.0), 1 mM DTT, 0.005% Tween-20, and 0.01% bovine skin gelatin was utilized. […] The reaction was quenched after 120 minutes by adding excess (1 mM final concentration) unlabeled SAM. Quenched reactions were transferred onto streptavidin coated Flashplates (PerkinElmer), incubated for 2 hours, washed 1x with 0.1% Tween 20, and read on a Topcount instrument (PerkinElmer).
(§2) The reaction was initiated by adding 10 μL substrate mix containing peptide and SAM. Concentration–response curves in units of percent inhibition were plotted as a function of inhibitor concentration and fitted in GraphPad Prism to determine the IC50 values using a four-parameter logistic equation.

For assay [1], the target named is T2, Avi-tagged WHSC1 941–1240 (Homo sapiens, UniProt O96028).
T2 construct: purchased BPS Bioscience 111207
T2 sequence (O96028 941-1240 limits assumed): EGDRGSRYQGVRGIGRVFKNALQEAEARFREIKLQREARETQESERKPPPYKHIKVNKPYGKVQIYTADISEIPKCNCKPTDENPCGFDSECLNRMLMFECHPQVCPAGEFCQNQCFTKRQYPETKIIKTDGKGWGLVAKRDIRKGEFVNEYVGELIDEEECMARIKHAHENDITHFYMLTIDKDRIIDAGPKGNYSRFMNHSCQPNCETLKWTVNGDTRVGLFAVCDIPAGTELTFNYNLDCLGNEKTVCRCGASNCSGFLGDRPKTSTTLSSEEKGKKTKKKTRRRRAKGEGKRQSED
Kind of assay: SPR binding assay, Avi-tagged WHSC1 941–1240. In general terms: Surface plasmon resonance follows binding to a sensor surface in real time, without labels.
Method: The SPR binding assay for Avi-tagged WHSC1 941–1240 was performed at 15°C using the Biacore T200 system (GE Healthcare, Marlborough, MA). The running buffer contained 25 mM Tris-HCl pH 8.0, 150 mM NaCl, 5 mM DTT, 0.05% Tween-20, 10 μM ZnCl2, 50 μM SAM, and 2% DMSO. Biotinylated WHSC1 was immobilized on a streptavidin-coated SA chip up to 3700 RU (response units). The reference cell was blocked with PEG-biotin. Peptide inhibitor was injected at a flow rate of 50 μL/min with a 3-fold, 5-point dilution series ending at a 20 μM top concentration. Association and dissociation times were 240 and 2400 seconds, respectively. Double-referenced data were analyzed globally using a 1:1 binding model in BIAevaluation software.
WHSC1 was immobilized on a streptavidin-coated chip and peptide inhibitor was co-injected with SAM utilizing a 3-fold, 5-point dilution series ending at a 20 μM top concentration.
WHSC1 was immobilized on a streptavidin-coated chip and peptide inhibitor was either injected in the absence of cofactor (left panel), co-injected with SAH (middle panel), or co-injected with SFG (right panel) utilizing a 2-fold, 10-point dilution series ending at a 100 μM top concentration.

The target in another assay is T3, WHSC1 941–1240 (Homo sapiens, UniProt O96028).
T3 construct: GST-tagged WHSC1 941–1240 (#51026); GST; purchased BPS Bioscience 51026
T3 sequence (O96028 941-1240): T2 sequence (O96028 941-1240 limits assumed)
Kind of assay: WHSC1 941–1240 radiometric biochemical assay (3H methyl transfer from SAM to biotinylated H4 peptide). Particulars: for IC50: radiometric, 10 nM enzyme, 1 μM total SAM, 0.5 μM H4 peptide, 30 min pre-incubation, 120 min, 25°C, pH 8.0, three independent replicates. How it is done:
as §1, §2

The next assay deals with SMYD2 (Homo sapiens, UniProt Q9NRG4). Kind of assay: HMT panel biochemical assay, SMYD2. As to conditions: HMT selectivity panel.
In the next assay the target is EZH1 (Homo sapiens, UniProt Q92800). In words: HMT panel biochemical assay, EZH1. Particulars: HMT selectivity panel.
The target of a further assay is SETDB1 (Homo sapiens, UniProt Q15047). Kind of assay: HMT panel biochemical assay, SETDB1. As to conditions: HMT selectivity panel.
Another assay deals with T4, G9a (Homo sapiens, UniProt Q96KQ7).
T4 sequence (Q96KQ7 1-1210): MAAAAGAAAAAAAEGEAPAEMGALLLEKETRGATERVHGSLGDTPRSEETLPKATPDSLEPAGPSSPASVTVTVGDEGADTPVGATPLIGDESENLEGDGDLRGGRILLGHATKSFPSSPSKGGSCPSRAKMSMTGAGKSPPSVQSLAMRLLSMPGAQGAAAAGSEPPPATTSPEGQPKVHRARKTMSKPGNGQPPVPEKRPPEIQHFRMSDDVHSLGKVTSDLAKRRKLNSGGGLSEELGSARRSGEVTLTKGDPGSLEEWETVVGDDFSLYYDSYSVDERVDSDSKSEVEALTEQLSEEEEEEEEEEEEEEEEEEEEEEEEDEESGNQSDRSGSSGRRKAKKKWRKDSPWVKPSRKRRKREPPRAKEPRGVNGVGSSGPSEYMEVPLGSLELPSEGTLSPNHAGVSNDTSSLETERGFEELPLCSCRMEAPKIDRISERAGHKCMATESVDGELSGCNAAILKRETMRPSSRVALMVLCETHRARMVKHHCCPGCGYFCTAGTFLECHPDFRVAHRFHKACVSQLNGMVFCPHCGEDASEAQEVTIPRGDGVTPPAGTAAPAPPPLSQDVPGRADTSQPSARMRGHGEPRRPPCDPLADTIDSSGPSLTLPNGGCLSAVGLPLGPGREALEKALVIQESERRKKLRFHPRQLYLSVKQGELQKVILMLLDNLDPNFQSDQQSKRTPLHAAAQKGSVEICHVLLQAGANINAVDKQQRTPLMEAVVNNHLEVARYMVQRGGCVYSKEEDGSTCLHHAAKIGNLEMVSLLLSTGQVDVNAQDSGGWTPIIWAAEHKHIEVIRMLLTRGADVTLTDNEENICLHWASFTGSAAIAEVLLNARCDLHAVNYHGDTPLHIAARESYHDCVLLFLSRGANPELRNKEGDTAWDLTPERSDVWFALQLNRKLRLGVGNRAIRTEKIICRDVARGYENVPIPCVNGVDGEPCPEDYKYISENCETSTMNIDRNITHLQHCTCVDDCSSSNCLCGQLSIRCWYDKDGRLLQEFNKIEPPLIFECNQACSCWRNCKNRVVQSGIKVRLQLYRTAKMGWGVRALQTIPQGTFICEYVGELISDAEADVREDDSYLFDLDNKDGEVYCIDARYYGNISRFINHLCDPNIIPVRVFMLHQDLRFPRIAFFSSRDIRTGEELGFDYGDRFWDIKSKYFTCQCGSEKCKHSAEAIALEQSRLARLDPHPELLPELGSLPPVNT
In words: HMT panel biochemical assay, G9a. Particulars: HMT selectivity panel.

Another assay addresses PRMT6 (Homo sapiens, UniProt Q96LA8). Kind of assay: HMT panel biochemical assay, PRMT6. As to conditions: HMT selectivity panel.
The target in a further assay is EZH2 (Homo sapiens, UniProt Q15910). In words: HMT panel biochemical assay, EZH2. As to conditions: HMT selectivity panel.
Where [2] appears, read: ratio of WHSC1 941–1240 biochemical IC50 values.

Square brackets hold non-standard residues; d marks the D form. Peptide text beside a SMILES is read from it. Nle = CCCC[C@H](N)C(=O)O A value given as a limit tells only on which side of the number the result lay.

Broadly, the IC50 is the concentration needed to halve the response being measured.

Sequence of PRMT6 (Q96LA8 whole entry, species assumed): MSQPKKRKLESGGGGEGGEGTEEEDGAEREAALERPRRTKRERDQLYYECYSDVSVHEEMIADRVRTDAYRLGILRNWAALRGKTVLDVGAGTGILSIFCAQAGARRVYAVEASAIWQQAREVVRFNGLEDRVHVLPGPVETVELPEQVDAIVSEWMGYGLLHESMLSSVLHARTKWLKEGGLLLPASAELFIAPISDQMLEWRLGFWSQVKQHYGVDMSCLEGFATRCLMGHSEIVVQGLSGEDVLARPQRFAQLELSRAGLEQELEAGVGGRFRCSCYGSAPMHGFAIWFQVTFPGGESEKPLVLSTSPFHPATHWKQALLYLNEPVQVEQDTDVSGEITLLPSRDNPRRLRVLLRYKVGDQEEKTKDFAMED
Sequence of EZH1 (Q92800 whole entry, species assumed): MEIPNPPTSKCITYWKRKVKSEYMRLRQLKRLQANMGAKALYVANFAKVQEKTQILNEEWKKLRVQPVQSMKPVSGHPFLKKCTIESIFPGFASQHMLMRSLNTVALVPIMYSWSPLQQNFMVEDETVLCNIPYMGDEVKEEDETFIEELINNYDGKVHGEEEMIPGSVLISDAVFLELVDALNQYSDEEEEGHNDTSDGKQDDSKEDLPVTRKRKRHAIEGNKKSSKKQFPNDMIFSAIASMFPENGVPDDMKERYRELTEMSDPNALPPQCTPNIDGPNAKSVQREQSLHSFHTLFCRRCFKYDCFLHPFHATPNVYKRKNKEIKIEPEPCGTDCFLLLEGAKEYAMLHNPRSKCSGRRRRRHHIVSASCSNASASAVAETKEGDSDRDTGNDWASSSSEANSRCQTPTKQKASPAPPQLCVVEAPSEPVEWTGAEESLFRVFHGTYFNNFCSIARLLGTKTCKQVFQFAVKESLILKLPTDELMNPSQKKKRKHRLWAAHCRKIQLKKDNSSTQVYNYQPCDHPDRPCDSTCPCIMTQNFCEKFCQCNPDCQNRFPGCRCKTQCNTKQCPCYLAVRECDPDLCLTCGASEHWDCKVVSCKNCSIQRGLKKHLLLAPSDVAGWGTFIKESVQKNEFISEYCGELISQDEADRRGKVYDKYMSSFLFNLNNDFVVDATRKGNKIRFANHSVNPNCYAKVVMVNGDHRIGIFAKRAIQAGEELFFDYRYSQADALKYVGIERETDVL
Sequence of EZH1 (O75530 whole entry partner, species assumed): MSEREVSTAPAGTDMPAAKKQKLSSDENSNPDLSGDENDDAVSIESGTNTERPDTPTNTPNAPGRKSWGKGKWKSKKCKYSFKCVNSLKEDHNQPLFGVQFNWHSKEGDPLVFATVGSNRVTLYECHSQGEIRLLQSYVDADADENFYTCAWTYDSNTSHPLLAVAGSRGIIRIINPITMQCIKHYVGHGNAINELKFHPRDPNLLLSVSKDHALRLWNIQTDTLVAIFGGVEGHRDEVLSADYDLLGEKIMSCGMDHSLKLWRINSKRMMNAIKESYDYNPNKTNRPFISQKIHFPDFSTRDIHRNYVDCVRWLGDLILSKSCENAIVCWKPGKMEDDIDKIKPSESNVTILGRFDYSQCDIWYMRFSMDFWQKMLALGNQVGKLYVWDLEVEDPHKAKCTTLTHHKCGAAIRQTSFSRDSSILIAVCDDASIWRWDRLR
Sequence of EZH1 (Q15022 whole entry partner, species assumed): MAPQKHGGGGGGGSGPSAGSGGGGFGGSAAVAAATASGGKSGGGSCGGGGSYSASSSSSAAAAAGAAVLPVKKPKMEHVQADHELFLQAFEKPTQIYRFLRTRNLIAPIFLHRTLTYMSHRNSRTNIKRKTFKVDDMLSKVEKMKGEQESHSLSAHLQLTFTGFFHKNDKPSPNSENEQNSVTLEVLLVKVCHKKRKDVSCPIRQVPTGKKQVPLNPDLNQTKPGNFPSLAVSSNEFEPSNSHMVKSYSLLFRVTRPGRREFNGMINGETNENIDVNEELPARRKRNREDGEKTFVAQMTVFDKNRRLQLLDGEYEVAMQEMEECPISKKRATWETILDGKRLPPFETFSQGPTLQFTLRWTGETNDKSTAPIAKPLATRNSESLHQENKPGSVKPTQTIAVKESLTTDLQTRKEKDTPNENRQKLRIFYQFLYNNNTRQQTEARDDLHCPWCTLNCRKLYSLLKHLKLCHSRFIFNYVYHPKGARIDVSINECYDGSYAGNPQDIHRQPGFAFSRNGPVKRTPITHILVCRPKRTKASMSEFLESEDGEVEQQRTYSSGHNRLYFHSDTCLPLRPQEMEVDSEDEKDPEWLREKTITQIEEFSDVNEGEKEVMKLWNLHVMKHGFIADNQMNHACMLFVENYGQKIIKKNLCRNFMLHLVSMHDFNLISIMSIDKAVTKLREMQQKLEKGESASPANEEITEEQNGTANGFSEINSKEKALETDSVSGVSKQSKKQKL
Sequence of EZH2 (Q15910 whole entry, species assumed): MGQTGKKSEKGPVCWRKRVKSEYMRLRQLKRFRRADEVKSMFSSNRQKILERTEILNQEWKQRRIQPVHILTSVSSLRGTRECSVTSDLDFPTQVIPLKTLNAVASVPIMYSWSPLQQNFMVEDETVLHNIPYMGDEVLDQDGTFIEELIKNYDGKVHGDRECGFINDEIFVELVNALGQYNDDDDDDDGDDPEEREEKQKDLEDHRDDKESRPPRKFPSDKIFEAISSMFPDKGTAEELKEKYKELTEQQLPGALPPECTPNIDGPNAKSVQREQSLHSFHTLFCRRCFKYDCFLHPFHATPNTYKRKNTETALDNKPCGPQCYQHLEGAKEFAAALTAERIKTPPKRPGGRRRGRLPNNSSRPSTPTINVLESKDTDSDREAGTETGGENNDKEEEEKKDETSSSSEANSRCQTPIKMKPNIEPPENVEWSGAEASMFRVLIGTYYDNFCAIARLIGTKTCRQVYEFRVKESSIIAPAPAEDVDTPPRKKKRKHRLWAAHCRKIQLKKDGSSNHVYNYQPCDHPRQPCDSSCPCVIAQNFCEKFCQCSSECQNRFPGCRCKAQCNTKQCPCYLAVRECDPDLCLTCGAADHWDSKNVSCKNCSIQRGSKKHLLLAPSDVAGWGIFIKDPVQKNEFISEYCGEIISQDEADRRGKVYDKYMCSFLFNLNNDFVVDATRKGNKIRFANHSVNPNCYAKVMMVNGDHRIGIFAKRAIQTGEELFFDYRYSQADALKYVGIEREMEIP
Sequence of EZH2 (O75530 whole entry partner, species assumed): as the sequence (O75530 whole entry partner, species assumed) above
Sequence of EZH2 (Q15022 whole entry partner, species assumed): as the sequence (Q15022 whole entry partner, species assumed) above
Sequence of SMYD2 (Q9NRG4 whole entry, species assumed): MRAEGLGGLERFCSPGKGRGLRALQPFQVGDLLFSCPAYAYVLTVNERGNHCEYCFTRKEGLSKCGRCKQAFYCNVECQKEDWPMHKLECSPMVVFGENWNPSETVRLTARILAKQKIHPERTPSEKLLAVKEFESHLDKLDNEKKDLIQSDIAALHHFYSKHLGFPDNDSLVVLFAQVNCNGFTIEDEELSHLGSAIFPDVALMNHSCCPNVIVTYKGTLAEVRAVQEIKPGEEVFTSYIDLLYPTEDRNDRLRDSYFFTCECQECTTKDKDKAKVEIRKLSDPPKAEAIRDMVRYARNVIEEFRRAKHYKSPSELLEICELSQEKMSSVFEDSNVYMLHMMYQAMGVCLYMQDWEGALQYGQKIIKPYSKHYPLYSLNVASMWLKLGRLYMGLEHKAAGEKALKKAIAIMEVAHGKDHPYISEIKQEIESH

Turning to `CCCC[C@H](NC(=O)[C@@H](NC(=O)CNC(=O)CNC(=O)[C@H](CCCNC(=N)N)NC(=O)[C@H](CCCNC(=N)N)NC(=O)[C@H](C)NC(=O)[C@H](CC(C)C)NC(=O)[C@H](CCCNC(=N)N)NC(C)=O)C(C)C)C(=O)N[C@@H](CCCNC(=N)N)C(=O)N[C@H](C(=O)N[C@@H](CO)C(=O)NCC(=O)N[C@@H](CC(C)C)C(=O)N[C@H](C(N)=O)[C@@H](C)CC)[C@@H](C)CC` [PTD1] (Ac-RLARRGGV[Nle]RISGLI-NH2), the results for the IC50 on WHSC1L1 1054–1285 and on WHSC1 941–1240 were 1.1 ± 0.1 µM and 0.088 ± 0.005 µM, respectively. The “SPR behaviour on the sensor surface” value in assay [1] (at concentrations greater than 1 μM, affinity to WHSC1 could not be determined) is given as “non-specific matrix interactions”. The “fold more potent towards WHSC1 than the 5 residue Nle peptide (PTD2)” value at WHSC1 941–1240 (setting [2]) is recorded as 250 fold.

In the case of `CCCC[C@H](NC(=O)[C@@H](NC(=O)CNC(C)=O)C(C)C)C(=O)N[C@@H](CCCNC(=N)N)C(=O)N[C@H](C(N)=O)[C@@H](C)CC` [PTD2], the IC50 at SMYD2, at EZH1, at SETDB1, on G9a, against PRMT6 and on EZH2 was over 200 µM in each case. In addition, the “SPR binding in the absence of cofactor” value in assay [1] (no cofactor, 2-fold, 10-point dilution, top concentration 100 μM) is “no binding is observed”.

Take `CCCC[C@H](NC(=O)[C@@H](NC(=O)CNC(=O)CNC(C)=O)C(C)C)C(=O)N[C@@H](CCCNC(=N)N)C(N)=O` [PTD4] (Ac-GGV[Nle]R-NH2): the IC50 against WHSC1L1 1054–1285 amounted to 320 ± 30 µM; against WHSC1 941–1240 it was 180 ± 20 µM.

Regarding `CCCC[C@H](NC(=O)[C@@H](NC(=O)CNC(=O)CNC(=O)[C@H](CCCNC(=N)N)NC(C)=O)C(C)C)C(N)=O` [PTD5] (Ac-RGGV[Nle]-NH2), the IC50 on WHSC1L1 1054–1285 worked out at 110 ± 10 µM; against WHSC1 941–1240 it was 190 ± 20 µM.

For `CCCC[C@H](NC(=O)[C@@H](NC(C)=O)C(C)C)C(=O)N[C@@H](CCCNC(=N)N)C(=O)N[C@H](C(=O)N[C@@H](CO)C(N)=O)[C@@H](C)CC` [PTD6] (Ac-V[Nle]RIS-NH2), the IC50 against WHSC1L1 1054–1285 worked out at 3 ± 0.3 µM; against WHSC1 941–1240 it was 110 ± 20 µM.

Regarding `CCCC[C@H](NC(C)=O)C(=O)N[C@@H](CCCNC(=N)N)C(=O)N[C@H](C(=O)N[C@@H](CO)C(=O)NCC(N)=O)[C@@H](C)CC` [PTD7] (Ac-[Nle]RISG-NH2), the IC50 is over 1000 µM against WHSC1L1 1054–1285 and 200 ± 40 µM on WHSC1 941–1240.

With `CCCC[C@H](NC(=O)[C@@H](NC(=O)CNC(=O)CNC(=O)[C@@H](NC(=O)[C@H](C)NC(=O)[C@@H]1CCCN1C(=O)[C@H](C)NC(=O)[C@H](CO)NC(C)=O)[C@@H](C)O)C(C)C)C(=O)N[C@@H](CCCCN)C(=O)N1CCC[C@H]1C(=O)N[C@@H](Cc1c[nH]cn1)C(=O)N[C@@H](CCCNC(=N)N)C(=O)N[C@@H](Cc1ccc(O)cc1)C(=O)N[C@@H](CCCNC(=N)N)C(N)=O` [PTD8], the 50% inhibitory concentration (IC50) at WHSC1L1 1054–1285 was 190 ± 30 µM; against WHSC1 941–1240, 13 ± 1 µM. In addition, the “fold loss in WHSC1 potency compared with PTD1” value on WHSC1 941–1240 (setting [2]) was 150 fold.

On to `CCCC[C@H](NC(=O)[C@@H](NC(=O)CNC(C)=O)C(C)C)C(=O)N[C@@H](CCCCN)C(=O)N1CCC[C@H]1C(N)=O` [PTD9] (Ac-GV[Nle]KP-NH2), for which the IC50 is 370 ± 40 µM against WHSC1L1 1054–1285 and 130 ± 20 µM at WHSC1 941–1240. For the same compound, the “fold decrease in WHSC1 potency relative to PTD2” value at WHSC1 941–1240 (setting [2]) is 6 fold.

With Ac-GVARI-NH2 [PTD3], the 50% inhibitory concentration (IC50) is over 1000 µM at WHSC1L1 1054–1285 and 640 ± 70 µM at WHSC1 941–1240. Besides, the “fold decrease in WHSC1 potency relative to PTD2” value on WHSC1 941–1240 (setting [2]) came to 30 fold.
